The text below walks through data of US6806257B1, “Flavones as inducible nitric oxide synthase inhibitors, cyclooxygenase-2 inhibitors and potassium channel activators” (priority 1999, dated 2004).

SMILES strings stand for the structures. Entries after “also recorded” stand apart in the source; their conditions may differ.

Assay [1] has as its system iNOS. Kind of assay: iNOS expression in cultured primary smooth muscle cells from porcine cerebral arteries (immunostaining, Western blot). It is filed as cell-based. How it is done: Culture of smooth muscle cells. The entire brain with dura attached was removed and placed in ice-cold sterile phosphate-buffered saline (PBS) (140 mM NaCl, 4 mM KCl, 1 mM KH2PO4, pH 7.4) containing antibiotics (100 U/ml penicillin G potassium, 100 μg/ml streptomycin sulfate, and 0.25 μg/ml fungizone) (Fisher Scientific, Springfield, N.J.). The arteries of the circle of Willis were removed and cleaned of surrounding tissue under a dissecting microscope. The arteries were then placed on a sterile petri dish and sliced longitudinally. The luminal surface was rubbed with a sterile cotton swab to remove endothelial cells. The vessels were placed in DMEM (Dulbecco's Modified Eagle Medium, Life Technologies, Grand Island, N.Y.) containing antibiotics and stored overnight at 4° C. The vessels were cut into approximately 2×2-mm explants, placed in a 10 cm petri dish, covered with DMEM containing antibiotics plus 20% FBS (fetal bovine serum, Sigma Chemical Co., St Louis, Mo.), and placed in an incubator in an atmosphere of 5% CO2 in air at 37° C. […]
Western blots. […] Expression of iNOS was detected by NBT and BCIP staining (Sigma Chemical Co., St. Louis, Mo.).
Photomicrographs of immunofluorescence at 20× were immediately taken with an Olympus fluorescence microscope fitted with an FITC filter. […]

For assay [2], the system named is NF-kB (p65) / IkB. The experiment in a line: Nuclear p65 / cytosolic IkB western blot in LPS-treated RAW264.7 macrophages. In kind it is cell-based, mouse. The settings on record: 20 μg/ml, 100 ng/ml LPS for 30 minutes. Here is the method:
Western blots. Total cellular extract, cytosolic fractions (for IkB) and nuclear fraction (for p65 antibody) were prepared according to Muller et al., Immunobiology, 187, 233-256, 1993 and separated on sodium dodecyl sulfatepolyacrylamide minigels (8% for iNOS or COX-2, and 10% for IkB or p65) and transferred to immobilon polyvinylidene difluoride membranes (Millipore, Bedford, Mass.). The membrane was incubated overnight at 4° C. with 1% bovine serum albumin and then incubated with anti-iNos, COX-2, α-Tubulin monoclonal antibodies (Transduction Laboratories, Lexington, Ky.), anti-IkB or anti-p65 polyclonal antibodies (Santa Cruz Biochemicals, Santa Cruz, Calif.). iNOS, IkB, p65, Cox-2, α-Tubulin were detected by NBT and BCIP staining (Sigma Chemical Co., St. Louis, Mo.).
NF-kB is a transcription factor that is activated in response to stimulation by LPS, and activation of NF-kB is an essential factor in inducing iNOS gene expression in macrophages (Kim, Y. M., Biochem. Biophys. Res. Commun. 236, 655-660, 1997). To assess the effect of these compounds (20 μg/ml) on early stage of iNOS gene expression, the activation of NF-kB in RAW264.7 macrophages was examined using the electrophoretic mobility shift assay (EMSA) (FIGS. 6i and 6ii).

Assay [3] relates to nNOS. The experiment in a line: nNOS expression in cultured primary smooth muscle cells from porcine cerebral arteries. In kind it is cell-based. The note with it: 30 μM and 60 μM.
The test system of assay [4] is porcine cerebral arteries. The experiment in a line: Relaxation elicited by transmural nerve stimulation (TNS) in cerebral arterial segments. The settings on record: acute administration 30 μM, U-46619 tone. How it is done:
(§1) In vitro tissue bath studies. The arterial segment (4 mm long) of the circle of Willis was dissected and cannulated with a stainless-steel rod (30-28 gauge) of hemispherical section, and a short piece of platinum wire, and mounted horizontally in a plastic tissue bath containing 6 ml of Krebs' bicarbonate solution. The platinum wire was bent into a U shape and anchored to a gate. The stainless-steel rod was connected to a stain gauge transducer (UC3, available from Gould) for isometric recording of changes in force. The temperature of Krebs' solution in the tissue baths, equilibrated with 95% O2 and 5% CO2, was maintained at 37° C. Tissues were equilibrated in the Krebs' solution for an initial 30 minutes and were mechanically stretched to a resting tension of 0.75 g for another 30 minutes. The segments of the circle of Willis were precontracted with 9,11-dideoxy-9α,11α-epoxymethanoprostagladin F2α(U-46619, 1 μM) to induce an active muscle tone of 0.5-0.75 g. Experimental drugs such as L-arginine and Oroxylin A of various concentrations, and TNS at 2,4,8 Hz were applied to induce relaxation. The arteries were then washed with pre-warmed Krebs' solution. […] Stimulation parameters were continuously monitored on a Tektronix oscilloscope. […] The magnitude of a vasodilator response induced by experimental drugs and TNS was expressed as a percentage of the maximum response induced by PPV. […]

Assay [5] concerns porcine cerebral arteries. The experiment in a line: L-arginine-induced relaxation in LPS-incubated cerebral arteries without endothelial cells. The settings on record: LPS 10 μg/ml 20 hours, concomitant 60 μM, U-46619 tone. Here is the method:
as §1

Assay [6] relates to COX-2. The experiment in a line: LPS-induced COX-2 mRNA in Bcl-2-overexpressed RAW264.7 cells. The note with it: 20 μg/ml, LPS 100 ng/ml. It is filed as cell-based, mouse.

Regarding `COc1c(O)cc2oc(-c3ccccc3)cc(=O)c2c1O` [oroxylin A, 5,7-dihydroxy-6-methoxy flavone], the “LPS-induced iNOS-immunoreactive cultured smooth muscle cells” value in assay [1] (LPS 10 μg/ml 20 hours, concomitant 60 μM) is “drastically decreased; also recorded: inhibition”. Also, the “LPS-induced iNOS proteins, Western blot” value in assay [1] (LPS 10 μg/ml, 30 μM and 60 μM) is recorded as “decreased by oroxylin A in a concentration-dependent manner”. Besides, the “LPS-induced increase of nuclear p65 and decrease of cytosolic IkB” value in assay [2] is “significantly inhibited”. The “expression of nNOS” value in assay [3] is given as “did not affect”. For the same molecule, the “relaxation elicited by TNS at 2, 4, and 8 Hz” value in assay [4] was “slightly and significantly enhanced; also recorded: increased”. Also, the “LPS-rendered L-Arginine-induced relaxation” value in assay [5] is “significantly decreased”. In addition, the “LPS-induced COX-2 mRNA” value in assay [6] is “inhibited”.
